In one series the test system is L02. Put plainly: MTT cytotoxicity assay, embryonic liver cell line (selective toxicity). The series is classed as cell-based. As to conditions: for inhibition at 100 µM: L02, human embryonic liver cell line. The protocol:
(§1) HepG-2, and DU-145 human tumor cell lines were grown in DMEM medium supplemented with Glutamax-I and glucose. A pseudo-normal human embryonic liver cell line (L02) was used to study the cytotoxicity of the synthesized compounds. The cell culture medium was supplemented with fetal calf serum (10% v/v), penicillin (100 IU/mL), and streptomycin (100 µg/mL), then preserved at 37 °C.
(§2) A spectrophotometric MTT reagent assay was employed to assess the cytotoxic activity of the synthesized compounds. In brief, the grown cells (approx. 5 × 10^3 count) were placed in each well of a 96-well plate and 100 µL of the culture medium was added along with the synthesized compounds (1–100 µmol/L). The well plate was subjected to incubation for 72 h; later, 10 µL of MTT (5 mg/mL) was added to each well. The well plate was further incubated for 4 h at 37 °C. The resulting insoluble formazan was dissolved by adding sodium dodecyl sulfate (100 µL, 10%) to each well and continuing incubation for an additional 12 h. Later, the 96-well plate was used to measure the absorbance at the 540 nm and 630 nm reference wavelengths using the spectrophotometer. The blank absorbance was treated as a control and the IC50 values were determined by a non-linear regression model with the help of normalized dose-response data acquired via MTT assay.
In general terms: Formazan colour is commonly taken as a measure of viable cells.

Another series deals with DU-145. Put plainly: MTT cytotoxicity assay, prostate cancer cell line. The series is classed as cell-based, human. The protocol:
as §1, §2

For another series, the system named is Hep G-2. The series can be described thus: MTT cytotoxicity assay, liver cancer cell line. In kind it is cell-based, human. The protocol: as §1, §2
A further series addresses GSK-3β (Homo sapiens, UniProt P49841). Put plainly: GSK-3β inhibitory assay (Kinase-Glo luminescence). The settings on record: for inhibition at 50 µM: read-out: % of Inhibition at 50 µM, 50 µM, triplicate. In general terms: In Kinase-Glo more light means more ATP remaining.

Sequence of GSK-3β (P49841 whole entry): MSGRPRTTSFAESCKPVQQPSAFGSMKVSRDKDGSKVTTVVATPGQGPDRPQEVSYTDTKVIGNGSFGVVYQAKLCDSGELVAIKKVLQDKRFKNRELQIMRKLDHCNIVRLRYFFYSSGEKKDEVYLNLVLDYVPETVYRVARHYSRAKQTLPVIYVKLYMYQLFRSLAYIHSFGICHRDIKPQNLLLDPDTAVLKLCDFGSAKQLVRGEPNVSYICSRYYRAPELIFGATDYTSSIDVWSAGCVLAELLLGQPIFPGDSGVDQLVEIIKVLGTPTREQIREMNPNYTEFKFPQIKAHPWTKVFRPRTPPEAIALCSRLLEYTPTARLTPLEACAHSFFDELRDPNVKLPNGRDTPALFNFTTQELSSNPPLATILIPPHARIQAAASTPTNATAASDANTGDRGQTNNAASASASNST
Experimental for GSK-3β: Briefly, the assay procedure was as follows. […] The activity was determined by the difference between total and consumed ATP. The inhibition activity was determined using the maximal activity in the absence of the inhibitor and the maximal inhibition in the presence of the reference drug. IC50 values were determined using the GraphPad Prism 4.0 tool (GraphPad Software Inc., San Diego, CA, USA).

What is called inhibition is the share of the control response that was lost under treatment. As usually defined, the IC50 is the midpoint of a concentration-inhibition curve. A word on the melting point: it is the temperature, or range, at which the solid turns liquid. `Cc1ccc2c(c1)N=C(c1cc(C)cc(Br)c1O)CC(c1ccc(N(C)C)cc1)S2` (stereo not drawn) [2e, 2-bromo-6-(2-(4-(dimethylamino)phenyl)-7-methyl-2,3-dihydrobenzo[b][1,4]thiazepine-4-yl)-4-methylphenol]: the melting point was 244 to 246 °C. In the series with L02, this compound gave an inhibition at 100 µM of 52.2 ± 1.42%. In addition, the IC50 in the series on DU-145 (Homo sapiens, DU-145, 72 h) worked out at 37.52 ± 0.27 µM. The compound further yielded an IC50 in the series on Hep G-2 (Homo sapiens, HepG2, 72 h) of 6.87 ± 0.15 µM. Besides, the inhibition at 50 µM at GSK-3β amounted to 66.6 ± 2.51%.
The corresponding values for `Cc1ccc2c(c1)N=C(c1cc(C)cc(I)c1O)CC(c1ccc(N(C)C)cc1)S2` (stereo not drawn) [2b, 2-(2-(4-(dimethylamino)phenyl)-7-methyl-2,3-dihydrobenzo[b][1,4]thiazepin-4-yl)-6-iodo-4-methylphenol] are 218 to 220 °C, 19.6 ± 0.97%, 41.34 ± 0.12 µM, 8.26 ± 0.26 µM and 60.7 ± 2.85%.
In the case of `Cc1ccc2c(c1)N=C(c1cc(Br)cc(Br)c1O)CC(c1ccc(N(C)C)cc1)S2` (stereo not drawn) [2g, 2,4-dibromo-6-(2-(4-(dimethylamino)phenyl)-7-methyl-2,3-dihydrobenzo[b][1,4]hiazepine-4-yl)phenol], the “% Inhibition (100 µM) L02” value in the series with L02 (human embryonic liver cell line) came to 15.56 ± 1.29%. The IC50 in the series on DU-145 (72 h) came to 28.53 ± 0.14 µM; with Hep G-2 (72 h), 8.32 ± 0.16 µM. Besides, the “% of Inhibition at 50 µM” value on GSK-3β was 87.62 ± 2.54%.
On to `Cc1ccc2c(c1)N=C(c1cc(Cl)cc(Cl)c1O)CC(c1ccc(N(C)C)cc1)S2` (stereo not drawn) [2c, 2,4-dichloro-6-(2-(4-(dimethylamino)phenyl)-7-methyl-2,3-dihydrobenzo[b][1,4]thiazepin-4-yl)phenol], for which the melting point was 222 to 224 °C. This compound also returned an inhibition at 100 µM in the series on L02 of 19.3 ± 1.25%. The IC50 in the series on DU-145 (Homo sapiens, DU-145, 72 h) is 20.45 ± 0.19 µM. This compound gave a half-maximal inhibitory concentration (IC50) with Hep G-2 (Homo sapiens, HepG2, 72 h) of 3.29 ± 0.15 µM. The inhibition at 50 µM on GSK-3β is over 90%.
The corresponding values for `Cc1ccc2c(c1)N=C(c1cc(Cl)cc(I)c1O)CC(c1ccc(N(C)C)cc1)S2` (stereo not drawn) [2d, 4-chloro-2-(2-(4-(dimethylamino)phenyl)-7-methyl-2,3-dihydrobenzo[b][1,4]thiazepine-4-yl)-6-iodophenol] are 244 to 246 °C, 31.4 ± 1.14%, 36.17 ± 0.14 µM, 7.89 ± 0.22 µM and 61.1 ± 1.98%.
`Cc1ccc2c(c1)N=C(c1cc(Cl)cc(Br)c1O)CC(c1ccc(N(C)C)cc1)S2` (stereo not drawn) [2f, 2-bromo-4-chloro-6-(2-(4-(dimethylamino)phenyl)-7-methyl-2,3-dihydrobenzo [b][1,4]thiazepin-4-yl)phenol] had a melting point of 244 to 246 °C. In the series with L02, this compound showed an inhibition at 100 µM of 28.4 ± 1.18%. In the series with DU-145 (Homo sapiens, DU-145, 72 h), this compound gave an IC50 of 24.58 ± 0.13 µM. In the series on Hep G-2 (Homo sapiens, HepG2, 72 h), this compound yielded an IC50 of 4.38 ± 0.11 µM. The inhibition at 50 µM on GSK-3β was determined as 89.7 ± 1.65%.
`Cc1ccc2c(c1)N=C(c1cc(I)cc(I)c1O)CC(c1ccc(N(C)C)cc1)S2` (stereo not drawn) [2a, 2-(2-(4-(dimethylamino)phenyl)-7-methyl-2,3-dihydrobenzo[b][1,4]thiazepin-4-yl)-4,6-diiodophenol] displayed a melting point of 230 to 232 °C. Also, at 100 µM the inhibition in the series on L02 was 28.2 ± 1.68%. Besides, in the series on DU-145 (Homo sapiens, DU-145, 72 h), the IC50 turned out to be 32.74 ± 0.13 µM. This compound also yielded an IC50 with Hep G-2 (Homo sapiens, HepG2, 72 h) of 7.52 ± 0.13 µM. In addition, at GSK-3β, the inhibition at 50 µM was found to be 62.4 ± 2.21%.
As for `Cc1ccc2c(c1)N=C(c1cc(Br)cc(I)c1O)CC(c1ccc(N(C)C)cc1)S2` (stereo not drawn) [2h, 4-bromo-2-(2-(4-(dimethylamino)phenyl)-7-methyl-2,3-dihydrobenzo[b][1,4]thiazepin-4-yl)-6-iodophenol], the melting point was in the range of 244 to 246 °C. This compound also returned an inhibition at 100 µM with L02 of 46.1 ± 1.05%. The same compound had an IC50 with DU-145 (Homo sapiens, DU-145, 72 h) of 36.8 ± 0.18 µM. Inhibition with Hep G-2 (Homo sapiens, HepG2, 72 h) was half-maximal at 8.56 ± 0.14 µM (IC50). Further, the inhibition at 50 µM at GSK-3β came out at 61.9 ± 3.47%.
As to `CN(Cc1cnc2nc(N)nc(N)c2n1)c1ccc(C(=O)N[C@@H](CCC(=O)O)C(=O)O)cc1` [Methotrexate, reference compound], in the series on L02, 100 µM produced 78.2 ± 1.86% inhibition. Besides, the concentration for half-maximal inhibition (IC50) with DU-145 (Homo sapiens, DU-145, 72 h) came to 21.96 ± 0.15 µM; with Hep G-2 (Homo sapiens, HepG2, 72 h) it was 4.68 ± 0.17 µM.
